# From ChEMBL document CHEMBL5584334, “Discovery of a Covalent Inhibitor of Pro-Caspase-1 Zymogen Blocking NLRP3 Inflammasome Activation and Pyroptosis” (J Med Chem, 2024)
# Activity calls are given as the source filed them. No cut-off for these calls is given here.
# What was measured:
# [1] = test system: J774.A1; assay: Inhibition of ROS production in LPS/nigericin stimulated mouse J774.A1 cells; format: functional, cell-based
# [2] = test system: J774.A1; assay: Inhibition of pyroptosis in mouse J774.A1 cells assessed as reduction in number of propidium iodide positive cells at 0.5 to 2 uM pretreated with LPS for 3 hrs followed by compound addition in presence of nigericin by flow cytometry analysis; format: functional, cell-based; conditions: dose 0.5-2 µM
# [3] = test system: Caspase-1 (Homo sapiens), P29466 [C285A]; assay: Binding affinity to Flag-tagged caspase-1 C285A mutant (unknown origin) expressed in HEK293T cells by pull-down assay; format: cell-based; conditions: dose 2.0 µM
# [4] = test system: Mus musculus; assay: (§1) Anti-inflammatory activity in MSU/C18:0 free fatty acid induced Kunming mouse model of gouty arthritis assessed as reduction p20 expression at 5 to 20 mg/kg, ip preadministered with compound for 30 mins followed by MSU/C18:0 free fatty acid injection and measured after 24 hrs by Western blotting analysis; format: functional, organism-based; conditions: dose 5-20 mg/kg, time 24.5 hrs
# [5] = molecular target: T1, Caspase-1 (Mus musculus) (UniProt P29452); assay: Irreversible binding affinity to caspase-1 in LPS-induced mouse J774.A1 cells assessed as reduction in IL-1beta level at 0.5 to 2 uM pretreated with LPS for 3 hrs followed by compound addition for 30 mins prior to compound washout then nigericin addition for 1 hr by ELISA; format: cell-based; conditions: dose 0.5-2 µM
# T1 sequence (whole entry): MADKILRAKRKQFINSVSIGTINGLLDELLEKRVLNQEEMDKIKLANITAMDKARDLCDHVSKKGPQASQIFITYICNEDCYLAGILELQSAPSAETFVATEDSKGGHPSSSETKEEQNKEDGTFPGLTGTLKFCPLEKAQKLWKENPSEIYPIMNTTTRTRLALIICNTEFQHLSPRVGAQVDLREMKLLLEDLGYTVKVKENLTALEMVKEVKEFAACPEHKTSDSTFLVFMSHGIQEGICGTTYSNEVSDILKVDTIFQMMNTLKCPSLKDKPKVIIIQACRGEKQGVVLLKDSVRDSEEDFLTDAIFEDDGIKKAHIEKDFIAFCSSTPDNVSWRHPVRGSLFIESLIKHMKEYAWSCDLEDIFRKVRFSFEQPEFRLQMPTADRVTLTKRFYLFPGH
# [6] = test system: J774.A1; assay: Effect on ASC oligomerization in mouse J774.A1 cells at 2 uM pretreated with LPS for 3 hrs prior to compound addition followed by nigericin stimulation; format: functional, cell-based
# [7] = molecular target: T2, Caspase-1 (Homo sapiens) (UniProt P29466); assay: Inhibition of recombinant human caspase-1 expressed in Escherichia coli BL21 cells assessed as remaining activity at 100 uM using […] as substrate incubated for 30 mins relative to control
# T2 sequence (whole entry): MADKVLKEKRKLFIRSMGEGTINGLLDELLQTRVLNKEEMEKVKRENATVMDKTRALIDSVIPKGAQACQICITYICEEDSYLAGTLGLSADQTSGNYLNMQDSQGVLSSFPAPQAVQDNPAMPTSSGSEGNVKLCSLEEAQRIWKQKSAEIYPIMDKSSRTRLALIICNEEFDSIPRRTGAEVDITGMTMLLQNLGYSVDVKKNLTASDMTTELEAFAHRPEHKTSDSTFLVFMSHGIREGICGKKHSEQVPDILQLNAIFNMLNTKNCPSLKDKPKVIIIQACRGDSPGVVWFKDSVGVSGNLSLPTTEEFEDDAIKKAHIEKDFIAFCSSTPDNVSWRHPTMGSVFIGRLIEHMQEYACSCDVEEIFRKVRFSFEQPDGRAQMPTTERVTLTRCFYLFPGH
# [8] = test system: Mus musculus; assay: as §1, with “effect on ASC” for “reduction p20”; format: functional, organism-based; conditions: dose 5-20 mg/kg, time 24.5 hrs
# [9] = test system: THP-1; assay: Effect on pro-caspase 1 protein expression in LPS/nigericin stimulated human THP-1 cells supernatant at 0.5 to 2 uM by Western blotting analysis; format: functional, cell-based; conditions: dose 0.5-2 µM
# [10] = test system: Caspase-1 (Homo sapiens), P29466 [C270A]; assay: Binding affinity to recombinant caspase-1 C270A mutant (unknown origin) at 2 uM by SDS-PAGE analysis
# [11] = test system: Caspase-1 (Homo sapiens), P29466 [C244A]; assay: Binding affinity to recombinant caspase-1 C244A mutant (unknown origin) at 2 uM by SDS-PAGE analysis
# [12] = molecular target: T2, Caspase-1 (Homo sapiens); assay: Inhibition of recombinant human caspase-1 expressed in Escherichia coli BL21 cells assessed as remaining activity at 10 uM using […] as substrate incubated for 30 mins relative to control
# [13] = test system: J774.A1; assay: Inhibition of NF-kappaB signaling in LPS-stimulated mouse J774.A1 cells at 1 uM preincubated for 30 mins followed by LPS addition and measured after 2 hrs by Western blotting analysis; format: cell-based; conditions: time 2.5 hrs
# [14] = test system: Mus musculus; assay: Anti-inflammatory activity in MSU/C18:0 free fatty acid induced ip dosed Casp1 knockout Kunming mouse model of gouty arthritis assessed as reduction in foot swelling preadministered with compound for 30 mins followed by MSU/C18:0 free fatty acid injection and measured after 24 hrs; format: functional, organism-based; conditions: time 24.5 hrs
# [15] = test system: THP-1; assay: Inhibition of p20 fragment of IL-1beta protein expression in LPS/MSU stimulated human THP-1 cells supernatant by Western blotting analysis; format: functional, cell-based
# [16] = test system: BMDM; assay: Effect on pro caspase-11 expression in mouse BMDM cells at 0.5 to 2 uM pretreated with pam3CSK4 for 3 hrs followed by compound addition for 30 mins prior to cytosolic LPS stimulation for 16 hrs by ELISA; format: functional, cell-based; conditions: dose 0.5-2 µM, time 16.5 hrs
# [17] = test system: THP-1; assay: Effect on pro-caspase-4 expression in human THP-1 cells at 2 uM pretreated with pam3CSK4 for 3 hrs followed by compound addition for 30 mins prior to cytosolic LPS stimulation for 16 hrs by ELISA; format: functional, cell-based; conditions: time 16.5 hrs
# [18] = molecular target: NACHT, LRR and PYD domains-containing protein 3 (Mus musculus) (UniProt Q8R4B8); assay: Inhibition of NLRP3 inflammasome activation in LPS/nigericin stimulated mouse J774.A1 cells assessed as reduction in IL-18 production pretreated with LPS for 3 hrs prior to compound addition for 30 mins followed by nigericin addition and measured after 45 mins by ELISA; format: cell-based; conditions: time 75.0 min
# [19] = molecular target: T2, Caspase-1 (Homo sapiens); assay: Inhibition of recombinant human caspase-1 expressed in Escherichia coli BL21 cells at 5 to 50 uM using […] as substrate incubated for 30 mins; conditions: dose 5-50 µM
# [20] = test system: THP-1; assay: Inhibition of p20 fragment of caspase 1 protein expression in LPS/MSU stimulated human THP-1 cells supernatant by Western blotting analysis; format: functional, cell-based
# [21] = molecular target: NACHT, LRR and PYD domains-containing protein 3 (Mus musculus) (UniProt Q8R4B8); assay: Inhibition of NLRP3 inflammasome activation in LPS primed Casp1 knockout mouse BMDM cells transfected with caspase-1 C284A mutant assessed as reduction in IL-1beta release at 2 uM preincubated for 30 mins followed by nigericin stimulation; format: cell-based
# [22] = molecular target: NACHT, LRR and PYD domains-containing protein 3 (Mus musculus) (UniProt Q8R4B8); assay: Inhibition of NLRP3 inflammasome activation in mouse J774.A1 cells assessed as reduction in TNF-alpha release at 0.5 to 2 uM preincubated for 30 mins followed by LPS stimulation for 6 hrs; format: cell-based; conditions: dose 0.5-2 µM, time 6.5 hrs
# [23] = test system: Mus musculus; assay: Anti-inflammatory activity in LPS/MSU-induced C57BL/6 mouse model of acute peritonitis assessed as reduction in IL-1beta expression at 20 mg/kg, ip preadministered intraperitoneally with compound for 30 mins followed by MSU injection and measured after 6 hrs by ELISA; format: functional, organism-based; conditions: time 6.5 hrs
# Chain of NACHT, LRR and PYD domains-containing protein 3 (Mus musculus) (Q8R4B8 whole entry, the tested form may be a part): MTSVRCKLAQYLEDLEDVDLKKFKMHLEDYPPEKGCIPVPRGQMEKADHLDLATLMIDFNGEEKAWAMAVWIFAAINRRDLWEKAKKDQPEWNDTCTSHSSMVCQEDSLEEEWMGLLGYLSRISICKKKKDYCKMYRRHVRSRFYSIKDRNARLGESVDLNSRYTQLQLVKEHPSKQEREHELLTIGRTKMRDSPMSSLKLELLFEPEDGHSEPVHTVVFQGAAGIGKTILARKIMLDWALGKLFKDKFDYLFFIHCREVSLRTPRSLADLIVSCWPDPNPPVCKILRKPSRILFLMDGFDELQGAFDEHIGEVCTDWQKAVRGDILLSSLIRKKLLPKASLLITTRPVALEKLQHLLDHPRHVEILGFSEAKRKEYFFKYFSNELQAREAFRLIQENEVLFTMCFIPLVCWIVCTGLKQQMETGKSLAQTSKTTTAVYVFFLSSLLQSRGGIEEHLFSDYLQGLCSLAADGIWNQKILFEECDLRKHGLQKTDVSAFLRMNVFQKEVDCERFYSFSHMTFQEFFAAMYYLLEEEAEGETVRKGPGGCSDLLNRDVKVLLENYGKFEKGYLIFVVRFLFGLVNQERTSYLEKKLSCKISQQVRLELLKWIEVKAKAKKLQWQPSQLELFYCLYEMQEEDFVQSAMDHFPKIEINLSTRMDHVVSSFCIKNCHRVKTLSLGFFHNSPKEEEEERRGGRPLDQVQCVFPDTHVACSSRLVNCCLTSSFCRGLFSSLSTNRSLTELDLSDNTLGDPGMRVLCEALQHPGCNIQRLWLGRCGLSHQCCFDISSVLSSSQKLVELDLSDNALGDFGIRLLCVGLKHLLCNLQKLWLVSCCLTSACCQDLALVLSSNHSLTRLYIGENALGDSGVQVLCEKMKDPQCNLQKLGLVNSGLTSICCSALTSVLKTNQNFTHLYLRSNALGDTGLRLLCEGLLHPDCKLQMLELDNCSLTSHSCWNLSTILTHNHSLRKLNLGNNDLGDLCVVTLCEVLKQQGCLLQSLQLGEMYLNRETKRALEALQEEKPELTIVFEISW
# Chain of Caspase-1 (Homo sapiens), P29466 [C244A] (P29466 whole entry C244A): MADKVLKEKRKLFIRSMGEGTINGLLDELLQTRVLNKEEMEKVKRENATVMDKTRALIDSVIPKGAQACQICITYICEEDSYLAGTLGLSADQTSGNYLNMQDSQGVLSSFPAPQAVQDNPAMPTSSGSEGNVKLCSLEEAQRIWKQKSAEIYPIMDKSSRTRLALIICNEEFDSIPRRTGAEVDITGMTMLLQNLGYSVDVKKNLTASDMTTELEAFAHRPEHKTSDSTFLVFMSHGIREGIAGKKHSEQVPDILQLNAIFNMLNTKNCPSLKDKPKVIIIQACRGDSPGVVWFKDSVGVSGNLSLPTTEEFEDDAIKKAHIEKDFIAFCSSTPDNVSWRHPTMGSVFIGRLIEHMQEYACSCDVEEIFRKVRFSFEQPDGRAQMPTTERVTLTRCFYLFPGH
# Chain of Caspase-1 (Homo sapiens), P29466 [C270A] (P29466 whole entry C270A): as the sequence (P29466 whole entry C244A) above, with A244C, C270A counted along it
# Chain of Caspase-1 (Homo sapiens), P29466 [C285A] (P29466 whole entry C285A): as the sequence (P29466 whole entry C244A) above, with A244C, C285A counted along it
structure (smiles),measurement,setting,value
COc1ccc2c(c1)[C@]1(C=C[C@H](N=C=S)C[C@H]1C(=O)OC(C)(C)C)C(=O)N2C(=O)OCc1ccccc1,inhibition,[1],inactive
same,inhibition,[2],Active
same,Activity,[3],inactive
same,Activity,[4],Active
same,Activity,[5],Active
same,inhibition,[6],Active
same,Activity,[7],16%
same,Activity,[8],inactive
same,Activity,[9],inactive
same,Activity,[10],Active
same,Activity,[11],Active
same,Activity,[12],31%
same,inhibition,[13],Active
same,Activity,[14],inactive
same,inhibition,[15],Active
same,Activity,[16],inactive
same,Activity,[17],inactive
same,inhibition,[18],Dose-Dependent Effect
same,inhibition (active/not active),[19],Active
same,inhibition,[20],Active
same,inhibition,[21],inactive
same,inhibition,[22],Active
same,Activity,[23],Active
